In EP3722296B1, “DIHYDRONAPHTHYRIDINES AND RELATED COMPOUNDS USEFUL AS KINASE INHIBITORS FOR THE TREATMENT OF PROLIFERATIVE DISEASES” (Deciphera Pharmaceuticals, LLC, priority 2012, dated 2013):

Experiments:
c-KIT V654A kinase = target: T1, c-KIT V654A kinase (Homo sapiens, UniProt P10721, V654A); assay: c-KIT V654A Kinase Assay; format: biochemical; settings: enzymatic assay, ATP 200 µM
T1 construct: residues T544-V976 with N-terminal GST fusion; purchased deCODE Biostructures
In short: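 Construct: cKIT residues T544–V976 with N-terminal tag, GST fusion and TEV site. Reaction started by adding serially diluted compound to the enzyme mixture; NADH oxidation, coupled to kinase turnover, followed as the decrease in A340 for 6 h at 30 °C.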

c-KIT D816H kinase = target: T2, c-KIT D816H kinase (Homo sapiens, UniProt P10721, D816H); assay: c-KIT D816H Kinase Assay; format: biochemical; settings: enzymatic assay, ATP 200 µM
T2 construct: The construct contains residues T544-V976 of cKit; GST (N); TEV cleavage site (internal); purchased deCODE Biostructures
In short: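 Coupled spectrophotometric assay following NADH oxidation as absorbance decrease at 340 nm, monitored continuously for 6 hours at 30 °C after adding serially diluted compound. Enzyme: mutant cKit construct with N-terminal tag, GST fusion and TEV cleavage site.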

c-KIT D816V kinase = target: T3, c-KIT D816V kinase (Homo sapiens, UniProt P10721, D816V); assay: c-KIT D816V kinase Assay; format: biochemical; settings: enzymatic assay, ATP 200 uM
T3 construct: residues T544-V976 with N-terminal GST fusion; purchased deCODE Biostructures
In short: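 Coupled assay in which NADH oxidation was tracked as decreasing absorbance at 340 nm, continuously for 5 hours at 30 °C after adding serially diluted compound. Enzyme: cKit residues T544-V976 with N-terminal tag, GST fusion and TEV cleavage site.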

c-KIT VVDV kinase = target: T4, c-KIT VVDV kinase (Homo sapiens, UniProt P10721, D816V/DEL559-560); assay: cKIT-VVDV kinase Assay; format: biochemical; settings: enzymatic assay; V559+V560 deletions and D816V mutation
T4 construct: This construct contains residues T544-V976 of cKit; GST (N); TEV cleavage site (internal); purchased deCODE Biostructures
Procedure: In this assay, the oxidation of NADH (measured by decrease in absorbance at 340 nm) was continuously monitored spectrophotometrically. […] The inhibition reaction was started by mixing serial diluted test compound with the above reaction mixture. The absorption at 340 nm was monitored continuously for 5 hours at 30 °C on Synergy 2 plate reader (BioTech). […] The protein construct was prepared by deCODE Biostructures using procedures known in the art. […] This construct is identical to Seq ID no.

c-KIT T670I kinase = target: T5, c-KIT T670I kinase (Homo sapiens, UniProt P10721, T670I); assay: c-KIT T670I kinase assay; format: biochemical; settings: enzymatic assay
T5 construct: The construct contains residues T544-V976 of cKit; GST (N); TEV cleavage site (internal); purchased deCODE Biostructures
In short: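 Coupled spectrophotometric assay following NADH oxidation as absorbance decrease at 340 nm, monitored continuously for 5 h at 30 °C after adding serially diluted compound. Enzyme is a cKit construct with N-terminal tag, GST fusion and TEV site, carrying the T670I mutation.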

Phospho-KIT (Tyr719) [1] = assay: GIST430 KIT Western Blot; format: cell-based; settings: GIST430 cells, 4 hours, serum-free medium; read-out: pKIT suppression by western blot analysi GIST430
Procedure: (§1) GIST48, GIST430, and GIST882 cells were obtained from J. Fletcher (Brigham and Women's Hospital, Boston, MA). GIST T1 cells were obtained from B. Rubin (Cleveland Clinic, Cleveland, OH) and Professor Takahiro Taguchi (Kochi Medical School, Nankoku, Kochi, Japan). […] GIST430 cells were grown in Ham's F10 medium supplemented with 15% characterized fetal bovine serum (Invitrogen, Carlsbad, CA), 30 mg/L bovine pituitary extract (BD Biosciences, San Jose, CA), 0.5% Mito+ serum extender (BD Biosciences, San Jose, CA), 1 unit/mL penicillin G, 1 µg/ml streptomycin, and 0.29 mg/mL L-glutamine at 37 °C, 5%CO2, 95% humidity. GIST T1 cells were grown in DMEM medium supplemented with 10% characterized fetal bovine serum (Invitrogen, Carlsbad, CA), 1 unit/mL penicillin G, 1 µg/ml streptomycin, and 0.29 mg/mL L-glutamine at 37 °C, 5% CO2, and 95% humidity.
(§2) One hundred fifty thousand cells were added per well in a 24-well tissue-culture treated plate. […] Medium was aspirated, cells were washed with PBS, and serum-free Ham's F10 medium was added. […] Cells were washed with PBS, then lysed. Cell lysates were separated by SDS-PAGE and transferred to PVDF. Phospho-KIT (Tyr719) was detected using an antibody from Cell Signaling Technology (Beverly, MA), ECL Plus detection reagent (GE Healthcare, Piscataway, NJ) and a Molecular Devices Storm 840 phosphorimager in fluorescence mode. Blots were stripped and probed for total KIT using an antibody from Santa Cruz Biotech (Santa Cruz, CA). IC50 values were calculated using Prism software (Graphpad, San Diego, CA).

Phospho-KIT (Tyr719) [2] = assay: GIST48 KIT Western Blot; format: cell-based; settings: GIST48 cells, 4 hours, serum-free medium; read-out: pKIT suppression by western blot analysi GIST48
In short: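 Phospho-KIT (Tyr719) was immunoblotted on PVDF and imaged in fluorescence mode after ECL Plus, with stripping and reprobing for total KIT. IC50 values were derived from the blot signals.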

Phospho-KIT (Tyr719) [3] = target: T6, Phospho-KIT (Tyr719) (Homo sapiens, UniProt P10721, K642E); assay: GIST882 KIT Western Blot; format: cell-based; settings: GIST882 cells, 4 hours, serum-free medium; read-out: pKIT suppression by western blot analysi GIST 882
T6 construct: endogenous in cells; host or cells: GIST882
Procedure: as §1
as §2, with “Two” for “One”, “RPMI1640” for “Ham's F10”

c-KIT kinase [4] = target: T7, c-KIT kinase (Homo sapiens, UniProt P10721); assay: c-KIT kinase Assay; format: biochemical; set-up: cKIT residues T544-V976; GST (N); TEV cleavage site (internal); purchased deCODE Biostructures; settings: enzymatic assay, ATP 200 µM; read-out: KIT (wt) IC50
In short: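 Activity of wild-type human c-KIT kinase was followed as NADH oxidation, read as falling absorbance at 340 nm on a Synergy 2 plate reader (BioTeK) for 2 hours at 30 °C. Rates from the 0 to 1 h window were compared with an uninhibited control to give percent inhibition. IC50 values were fitted in GraphPad Prism across a range of inhibitor concentrations.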
Target sequence in this assay (P10721 544-976): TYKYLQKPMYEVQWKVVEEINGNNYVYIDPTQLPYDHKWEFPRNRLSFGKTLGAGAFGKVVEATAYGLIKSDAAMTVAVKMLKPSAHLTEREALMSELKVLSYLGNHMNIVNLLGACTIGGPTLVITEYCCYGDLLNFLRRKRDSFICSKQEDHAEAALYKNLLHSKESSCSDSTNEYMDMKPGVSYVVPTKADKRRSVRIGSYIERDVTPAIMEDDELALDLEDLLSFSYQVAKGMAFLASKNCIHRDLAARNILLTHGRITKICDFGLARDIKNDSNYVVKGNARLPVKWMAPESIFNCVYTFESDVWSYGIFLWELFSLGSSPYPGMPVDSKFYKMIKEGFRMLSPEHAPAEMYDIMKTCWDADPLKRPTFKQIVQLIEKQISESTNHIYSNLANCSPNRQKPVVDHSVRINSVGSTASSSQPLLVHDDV

GIST430 cells = assay: GIST 430 Cell Proliferation Assay; format: cell-based; settings: Homo sapiens, 120 h, 115 hours + 5 hours resazurin
Procedure: GIST48, GIST430, and GIST882 cells were obtained from J. Fletcher (Brigham and Women's Hospital, Boston, MA). GIST T1 cells were obtained from B. Rubin (Cleveland Clinic, Cleveland, OH) and Professor Takahiro Taguchi (Kochi Medical School, Nankoku, Kochi, Japan). Briefly, GIST48 and GIST 882 cells were grown in RPMI 1640 medium supplemented with 15% characterized fetal bovine serum (Invitrogen, Carlsbad, CA), 1 unit/mL penicillin G, 1 µg/ml streptomycin, and 0.29 mg/mL L-glutamine at 37 °C, 5% CO2, and 95% humidity. GIST430 cells were grown in Ham's F10 medium supplemented with 15% characterized fetal bovine serum (Invitrogen, Carlsbad, CA), 30 mg/L bovine pituitary extract (BD Biosciences, San Jose, CA), 0.5% Mito+ serum extender (BD Biosciences, San Jose, CA), 1 unit/mL penicillin G, 1 µg/ml streptomycin, and 0.29 mg/mL L-glutamine at 37 °C, 5%CO2, 95% humidity. GIST T1 cells were grown in DMEM medium supplemented with 10% characterized fetal bovine serum (Invitrogen, Carlsbad, CA), 1 unit/mL penicillin G, 1 µg/ml streptomycin, and 0.29 mg/mL L-glutamine at 37 °C, 5% CO2, and 95% humidity.
A serial dilution of test compound was dispensed into a 384-well black clear bottom plate (Corning, Corning, NY). Two thousand five-hundred cells were added per well in 50 µL complete growth medium. Plates were incubated for 115 hours at 37°C, 5% CO2, 95% humidity. At the end of the incubation period 10 µL of a 440 µM solution of resazurin (Sigma, St. Louis, MO) in PBS was added to each well and incubated for an additional 5 hours at 37°C, 5% CO2, 95% humidity. Plates were read on a Synergy2 reader (Biotek, Winooski, VT) using an excitation of 540 nm and an emission of 600 nm.

GIST T1 cells = assay: GIST T1 Cell Proliferation Assay; format: cell-based; settings: Homo sapiens, GISTT1, 72 h, 68 hours + 4 hours resazurin
c-KIT kinase [5] = target: T7, c-KIT kinase; assay: Kinase inhibitory profile of marketed inhibitors, c-KIT kinase; format: biochemical
Target sequence in this assay (P10721 26-976): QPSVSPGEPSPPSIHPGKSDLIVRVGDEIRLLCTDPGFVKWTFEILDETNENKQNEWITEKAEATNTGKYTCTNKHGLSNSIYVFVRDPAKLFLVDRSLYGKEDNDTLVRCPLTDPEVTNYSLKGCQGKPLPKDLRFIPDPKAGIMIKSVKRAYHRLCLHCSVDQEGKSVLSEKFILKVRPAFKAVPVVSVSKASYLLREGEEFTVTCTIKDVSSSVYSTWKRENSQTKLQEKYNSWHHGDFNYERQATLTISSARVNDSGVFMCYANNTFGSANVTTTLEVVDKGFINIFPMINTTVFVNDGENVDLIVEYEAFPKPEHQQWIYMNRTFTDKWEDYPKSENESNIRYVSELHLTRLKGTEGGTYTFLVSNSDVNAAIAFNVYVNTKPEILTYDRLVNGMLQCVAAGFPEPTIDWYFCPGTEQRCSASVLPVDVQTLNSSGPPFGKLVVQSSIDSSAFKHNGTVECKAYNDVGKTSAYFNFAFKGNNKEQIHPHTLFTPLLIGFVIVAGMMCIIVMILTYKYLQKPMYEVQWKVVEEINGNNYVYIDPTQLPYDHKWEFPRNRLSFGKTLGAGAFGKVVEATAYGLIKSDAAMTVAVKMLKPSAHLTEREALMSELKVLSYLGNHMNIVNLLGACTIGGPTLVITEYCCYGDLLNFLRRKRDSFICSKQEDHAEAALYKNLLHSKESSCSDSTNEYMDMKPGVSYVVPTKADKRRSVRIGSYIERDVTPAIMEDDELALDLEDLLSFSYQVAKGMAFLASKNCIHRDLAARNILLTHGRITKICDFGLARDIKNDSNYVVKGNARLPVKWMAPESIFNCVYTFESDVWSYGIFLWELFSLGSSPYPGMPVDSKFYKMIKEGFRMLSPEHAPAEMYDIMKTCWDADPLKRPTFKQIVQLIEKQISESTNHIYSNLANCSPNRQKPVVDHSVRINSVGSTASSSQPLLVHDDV

T3 sequence (P10721 544-976 D816V): as the sequence (P10721 544-976) above, with D273V counted along it
T5 sequence (P10721 544-976 T670I): as the sequence (P10721 544-976) above, with T127I counted along it
T2 sequence (P10721 544-976 D816H): as the sequence (P10721 544-976) above, with D273H counted along it
T6 sequence (P10721 26-976 K642E): as the sequence (P10721 26-976) above, with K617E counted along it
T4 sequence (P10721 with tags, fused parts or gaps DEL559-560/D816V): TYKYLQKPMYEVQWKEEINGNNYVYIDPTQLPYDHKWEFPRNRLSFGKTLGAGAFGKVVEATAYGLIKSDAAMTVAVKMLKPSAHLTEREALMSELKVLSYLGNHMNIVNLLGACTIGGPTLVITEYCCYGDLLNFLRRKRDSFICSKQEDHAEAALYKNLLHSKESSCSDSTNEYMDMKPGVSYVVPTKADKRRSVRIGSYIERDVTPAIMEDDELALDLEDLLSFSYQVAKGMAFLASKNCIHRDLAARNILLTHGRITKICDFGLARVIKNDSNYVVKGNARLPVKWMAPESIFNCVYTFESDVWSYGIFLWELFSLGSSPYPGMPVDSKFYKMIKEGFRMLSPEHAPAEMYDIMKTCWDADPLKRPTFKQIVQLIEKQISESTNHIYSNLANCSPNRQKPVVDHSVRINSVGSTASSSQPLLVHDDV
T1 sequence (P10721 544-976 V654A): as the sequence (P10721 544-976) above, with V111A counted along it

| Compound | IC50 (c-KIT V654A kinase) | IC50 (c-KIT D816H kinase) | IC50 (c-KIT D816V kinase) | IC50 (c-KIT VVDV kinase) | IC50 (c-KIT T670I kinase) | IC50 (Phospho-KIT (Tyr719) [1]) | IC50 (Phospho-KIT (Tyr719) [2]) | IC50 (Phospho-KIT (Tyr719) [3]) | IC50 (c-KIT kinase [4]) | IC50 (GIST430 cells) | IC50 (GIST T1 cells) | IC50 (c-KIT kinase [5]) |
| --- | --- | --- | --- | --- | --- | --- | --- | --- | --- | --- | --- | --- |
| CNc1cc2c(cn1)cc(-c1cc(NC(=O)Nc3csc4ccccc34)c(F)cc1F)c(=O)n2C [Example 14, 1-(benzo[b]thiophen-3-yl)-3-(2,4-difluoro-5-(1-methyl-7-(methylamino)-2-oxo-1,2-dihydro-1,6-naphthyridin-3-yl)phenyl)urea] | – | – | 0.01 to 0.1 µM | 0.01 to 0.1 µM | < 0.01 µM | 0.01 to 0.1 µM | < 0.01 µM | < 0.01 µM | – | – | – | – |
| CCn1c(=O)c(-c2cc(NC(=O)Nc3cccc(F)c3)c(F)cc2F)cc2cnc(NC)cc21 [Example 15, 1-(5-(1-ethyl-7-(methylamino)-2-oxo-1,2-dihydro-1,6-naphthyridin-3-yl)-2,4-difluorophenyl)-3-(3-fluorophenyl)urea] | < 0.01 µM | 0.01 to 0.1 µM | 0.01 to 0.1 µM | 0.01 to 0.1 µM | 0.01 to 0.1 µM | 0.01 to 0.1 µM | 0.01 to 0.1 µM | 0.01 to 0.1 µM | < 0.01 µM | – | – | – |
| CCn1c(=O)c(-c2cc(NC(=O)Nc3cccc4ccccc34)c(F)cc2C)cc2cnc(NC)cc21 [Example 1, 1-(5-(1-ethyl-7-(methylamino)-2-oxo-1,2-dihydro-1,6-naphthyridin-3-yl)-2-fluoro-4-methylphenyl)-3-(naphthalen-1-yl)urea] | – | 0.01 to 0.1 µM | 0.01 to 0.1 µM | 0.01 to 0.1 µM | < 0.01 µM | < 0.01 µM | 0.01 to 0.1 µM | 0.1 to 1 µM | < 0.01 µM | – | – | – |
| CCCS(=O)(=O)Nc1ccc(F)c(C(=O)c2c[nH]c3ncc(-c4ccc(Cl)cc4)cc23)c1F [Vemurafenib®, vemurafenib] | – | – | – | – | – | – | – | – | – | – | – | 1.6 µM |

More lines, main results first:

| IC50 (c-KIT V654A kinase) | IC50 (c-KIT D816H kinase) | IC50 (c-KIT D816V kinase) | IC50 (c-KIT VVDV kinase) | IC50 (c-KIT T670I kinase) | IC50 (Phospho-KIT (Tyr719) [1]) | IC50 (Phospho-KIT (Tyr719) [2]) | IC50 (Phospho-KIT (Tyr719) [3]) | IC50 (c-KIT kinase [4]) | Compound | IC50 (GIST430 cells) | IC50 (GIST T1 cells) | IC50 (c-KIT kinase [5]) |
| --- | --- | --- | --- | --- | --- | --- | --- | --- | --- | --- | --- | --- |
| < 0.01 µM | 0.01 to 0.1 µM | 0.01 to 0.1 µM | 0.01 to 0.1 µM | 0.01 to 0.1 µM | 0.1 to 1 µM | 0.1 to 1 µM | 0.01 to 0.1 µM | < 0.01 µM | CCn1c(=O)c(-c2cc(NC(=O)Nc3ccccc3)c(F)cc2F)cc2cnc(NC)cc21 [Example 16, 1-(5-(1-ethyl-7-(methylamino)-2-oxo-1,2-dihydro-1,6-naphthyridin-3-yl)-2,4-difluorophenyl)-3-phenylurea] | – | – | – |
| 0.01 to 0.1 µM | 0.01 to 0.1 µM | 0.01 to 0.1 µM | 0.1 to 1 µM | 0.1 to 1 µM | – | – | – | < 0.01 µM | CNc1cc2c(cn1)cc(-c1cc(NC(=O)Nc3cccc(F)c3)c(F)cc1F)c(=O)n2C(C)C [Example 40, 1-(2,4-difluoro-5-(1-isopropyl-7-(methylamino)-2-oxo-1,2-dihydro-1,6-naphthyridin-3-yl)phenyl)-3-(3-fluorophenyl)urea] | 0.1 to 1 µM | < 0.01 µM | – |
| 0.01 to 0.1 µM | – | < 0.01 µM | – | 0.01 to 0.1 µM | 0.01 to 0.1 µM | < 0.01 µM | < 0.01 µM | < 0.01 µM | CC(=O)Nc1cc2c(cn1)cc(-c1cc(NC(=O)Nc3ccccc3)c(F)cc1Cl)c(=O)n2C(C)C [Example 86, N-(3-(2-chloro-4-fluoro-5-(3-phenylureido)phenyl)-1-isopropyl-2-oxo-1,2-dihydro-1,6-naphthyridin-7-yl)acetamide] | – | < 0.01 µM | – |
| – | 0.01 to 0.1 µM | 0.01 to 0.1 µM | – | 0.1 to 1 µM | – | > 1 µM | – | < 0.01 µM | CCn1c(=O)c(-c2cc(NC(=O)Nc3ccccc3F)c(F)cc2C)cc2cnc(NC)cc21 [Example 38, 1-(5-(1-ethyl-7-(methylamino)-2-oxo-1,2-dihydro-1,6-naphthyridin-3-yl)-2-fluoro-4-methylphenyl)-3-(2-fluorophenyl)urea] | 0.01 to 0.1 µM | < 0.01 µM | – |
| – | – | 0.01 to 0.1 µM | – | 0.01 to 0.1 µM | – | – | – | < 0.01 µM | CCn1c(=O)c(-c2cc(NC(=O)Nc3ccccc3)c(F)cc2Cl)cc2cnc(NCCCOC)cc21 [Example 39, 1-(4-chloro-5-(1-ethyl-7-(3-methoxypropylamino)-2-oxo-1,2-dihydro-1,6-naphthyridin-3-yl)-2-fluorophenyl)-3-phenylurea] | 0.01 to 0.1 µM | – | – |
